Laboratory results as given in PubChem BioAssay AID330 (DTP/NCI, 2004).
Several values for one entry are separate records, joined by “and”; a condition that tells them apart may be missing. Equal values may be shown once. Inconclusive results and toxic doses are left out. How the source made its calls: active means survival T/C of 150% or more; inactive means T/C below 125% in these data.

Tested on: P388 leukemia ip, CD2F1 mice, survival T/C
Assay: NCI In Vivo Anticancer Drug Screen. Data for tumor model P388 Leukemia (intraperitoneal) in CD2F1 (CDF1) mice
Settings: endpoint: median survival time, higher = longer survival
Outline: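 Mice carrying the transplanted tumor received test compound or vehicle. Survival was recorded in each group, and the value is the treated-group measurement divided by that of the vehicle-treated control group.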

[1] = dose: 50.0 mg/kg/injection, schedule: Q01DX005 (ip), vehicle: saline
[2] = dose: 100.0 mg/kg/injection, schedule: Q01DX005 (ip), vehicle: saline
[3] = dose: 200.0 mg/kg/injection, schedule: Q01DX005 (ip), vehicle: saline
[4] = dose: 50.0 mg/kg/injection, schedule: Q01DX005 (ip), vehicle: Klucel (hydroxypropylcellulose) (HPC)
[5] = dose: 100.0 mg/kg/injection, schedule: Q01DX005 (ip), vehicle: Klucel (hydroxypropylcellulose) (HPC)
[6] = dose: 200.0 mg/kg/injection, schedule: Q01DX005 (ip), vehicle: Klucel (hydroxypropylcellulose) (HPC)
[7] = dose: 25.0 mg/kg/injection, schedule: Q01DX009 (ip), vehicle: saline with Tween-80
[8] = dose: 50.0 mg/kg/injection, schedule: Q01DX009 (ip), vehicle: saline with Tween-80
[9] = dose: 50.0 mg/kg/injection, schedule: Q01DX005 (ip), vehicle: saline with Tween-80
[10] = dose: 100.0 mg/kg/injection, schedule: Q01DX005 (ip), vehicle: saline with Tween-80
[11] = dose: 60.0 mg/kg/injection, schedule: Q01DX005 (ip), vehicle: saline with Tween-80
[12] = dose: 120.0 mg/kg/injection, schedule: Q01DX005 (ip), vehicle: saline with Tween-80
[13] = dose: 240.0 mg/kg/injection, schedule: Q01DX005 (ip), vehicle: saline with Tween-80
[14] = dose: 50.0 mg/kg/injection, schedule: Q01DX009 (ip), vehicle: saline
[15] = dose: 100.0 mg/kg/injection, schedule: Q01DX009 (ip), vehicle: saline
[16] = dose: 200.0 mg/kg/injection, schedule: Q01DX009 (ip), vehicle: saline
[17] = dose: 100.0 mg/kg/injection, schedule: Q01DX009 (ip), vehicle: saline with Tween-80
[18] = dose: 50.0 mg/kg/injection, schedule: Q04DX003 (ip), vehicle: saline with Tween-80
[19] = dose: 100.0 mg/kg/injection, schedule: Q04DX003 (ip), vehicle: saline with Tween-80
[20] = dose: 200.0 mg/kg/injection, schedule: Q04DX003 (ip), vehicle: saline with Tween-80
[21] = dose: 400.0 mg/kg/injection, schedule: Q04DX003 (ip), vehicle: saline with Tween-80
[22] = dose: 200.0 mg/kg/injection, schedule: Q01DX005 (ip), vehicle: saline with Tween-80

Measured: T/C

CCCCCCC1OCN2CCCCC12 (stereo not drawn)
inactive: [1] 105 % of control | [2] 107 % of control | [3] 109 % of control

N#CCOC1OC(CO)C(O)C(O)C1O (stereo not drawn)
inactive: [4] 100 % of control | [5] 99 % of control | [6] 99 % of control

COc1cccc(-n2cc[n+](C)c2/C=N/O)c1
inactive: [7] 105 % of control | [8] 108 % of control

C=CC1CC[N-]CC1.[Cl][Cu][Cl]
inactive: dose: 7.5 mg/kg/injection, schedule: Q01DX005 (ip), vehicle: saline 98 % of control | dose: 15.0 mg/kg/injection, schedule: Q01DX005 (ip), vehicle: saline 100 % of control

CSCCC(NC(=O)CN(C)C(=O)OCc1ccccc1)C(=O)O (stereo not drawn)
inactive: [9] 100 % of control | [10] 100 % of control

CCOC(=O)N1CCN(C(=S)NNC(C)c2cc3ccccc3cn2)CC1 (stereo not drawn)
inactive: dose: 6.25 mg/kg/injection, schedule: Q01DX005 (ip), vehicle: saline with Tween-80 103 % of control | dose: 12.5 mg/kg/injection, schedule: Q01DX005 (ip), vehicle: saline with Tween-80 113 % of control

Nc1nc(-c2cc(C(c3ccccc3)c3ccccc3)nc(N)n2)cc(C(c2ccccc2)c2ccccc2)n1
inactive: [11] 105 % of control | [12] 109 % of control | [13] 101 % of control

COc1cc2c(cc1OC)C1c3cc(OC)c(OC)cc3CCN1CC2
inactive: dose: 3.13 mg/kg/injection, schedule: Q01DX009 (ip), vehicle: water 106 % of control | dose: 6.25 mg/kg/injection, schedule: Q01DX009 (ip), vehicle: water 106 % of control | dose: 12.5 mg/kg/injection, schedule: Q01DX009 (ip), vehicle: water 100 % of control | dose: 25.0 mg/kg/injection, schedule: Q01DX009 (ip), vehicle: water 107 % of control

COC1CC(O)(CC#N)C(OC(=O)c2ccc([N+](=O)[O-])cc2)C(COC(=O)c2ccc([N+](=O)[O-])cc2)O1 (stereo not drawn)
inactive: dose: 100.0 mg/kg/injection, schedule: Q04DX003 (ip), vehicle: Klucel (hydroxypropylcellulose) (HPC) 94 % of control | dose: 200.0 mg/kg/injection, schedule: Q04DX003 (ip), vehicle: Klucel (hydroxypropylcellulose) (HPC) 101 % of control | dose: 400.0 mg/kg/injection, schedule: Q04DX003 (ip), vehicle: Klucel (hydroxypropylcellulose) (HPC) 104 % of control

CON/C=C(C#N)/C=C/C=Nc1ccc(S(=O)(=O)N=C(N)N)cc1
inactive: dose: 12.5 mg/kg/injection, schedule: Q01DX009 (ip), vehicle: saline with Tween-80 98 % of control | [7] 93 % of control | [8] 87 % of control and 92 % of control

CN(C1=NC1(C)C)c1ccccc1
inactive: [14] 96 % of control | [15] 94 % of control | [16] 91 % of control

Cc1ccc(S(=O)(=O)/C=C/CCl)cc1
inactive: [9] 103 % of control | [10] 113 % of control

N#Cc1c(-c2ccccc2)cn2c1[nH]c(=O)c1ccccc12
inactive: [11] 111 % of control | [12] 107 % of control | [13] 101 % of control

CCOC1NC(=S)N(C2CCCCC2)C1(C)C (stereo not drawn)
inactive: dose: 50.0 mg/kg/injection, schedule: Q01DX009 (ip), vehicle: suspension in saline 93 % of control | dose: 100.0 mg/kg/injection, schedule: Q01DX009 (ip), vehicle: suspension in saline 92 % of control | dose: 200.0 mg/kg/injection, schedule: Q01DX009 (ip), vehicle: suspension in saline 97 % of control

O=C1CSC(=S)N1c1ccco1
inactive: [17] 100 % of control | dose: 200.0 mg/kg/injection, schedule: Q01DX009 (ip), vehicle: saline with Tween-80 100 % of control

C[C@@H]1CC2=CC(=O)CC[C@@H]2[C@H]2CC[C@@]3(C)[C@@H](CC[C@]3(C)O)[C@@H]21
inactive: [7] 100 % of control | dose: 25.0 mg/kg/injection, schedule: Q04DX003 (ip), vehicle: saline with Tween-80 100 % of control | [8] 105 % of control | [18] 91 % of control | [17] 105 % of control | [19] 104 % of control | [20] 100 % of control | [21] 90 % of control

CN(C)C(c1cccnc1)C1COCOC1 (stereo not drawn)
inactive: [1] 109 % of control | [2] 106 % of control | [3] 98 % of control

CCOC(=O)C(Cc1c[nH]c2ccccc12)NCc1ccc(N(CCCl)CCCl)cc1 (stereo not drawn)
inactive: dose: 10.0 mg/kg/injection, schedule: Q01DX009 (ip), vehicle: saline with Tween-80 94 % of control | dose: 20.0 mg/kg/injection, schedule: Q01DX009 (ip), vehicle: saline with Tween-80 110 % of control | dose: 40.0 mg/kg/injection, schedule: Q01DX009 (ip), vehicle: saline with Tween-80 110 % of control | [8] 97 % of control | dose: 80.0 mg/kg/injection, schedule: Q01DX009 (ip), vehicle: saline with Tween-80 123 % of control | [17] 106 % of control

O=C(NC(Cc1ccc(I)cc1)C(=O)O)c1cccc(Cl)c1 (stereo not drawn)
inactive: [4] 99 % of control | [5] 108 % of control | [6] 108 % of control

N/C(=N\N=C\c1cc(Br)cc(Br)c1O)N/N=C/c1cc(Br)cc(Br)c1O
inactive: dose: 12.5 mg/kg/injection, schedule: Q01DX009 (ip), vehicle: distilled water + Tween-80 88 % of control | dose: 25.0 mg/kg/injection, schedule: Q01DX009 (ip), vehicle: distilled water + Tween-80 93 % of control | dose: 50.0 mg/kg/injection, schedule: Q01DX009 (ip), vehicle: distilled water + Tween-80 90 % of control | dose: 200.0 mg/kg/injection, schedule: Q01DX009 (ip), vehicle: distilled water + Tween-80 98 % of control

O=C1c2cccc3c([N+](=O)[O-])ccc(c23)C(=O)N1CCc1ccccn1
inactive: [9] 101 % of control | [10] 111 % of control | [22] 96 % of control

CCN(CC)c1ccc2cc(C(=O)NC(=O)Oc3ccccc3)c(=O)oc2c1
inactive: dose: 100.0 mg/kg/injection, schedule: Q04DX002 (ip), vehicle: saline with Tween-80 92 % of control | dose: 200.0 mg/kg/injection, schedule: Q04DX002 (ip), vehicle: saline with Tween-80 89 % of control | dose: 400.0 mg/kg/injection, schedule: Q04DX002 (ip), vehicle: saline with Tween-80 87 % of control

CC(=O)OCC1OC(Nc2ncc(-c3ccc(C)cc3)s2)C(OC(C)=O)C(OC(C)=O)C1OC(C)=O (stereo not drawn)
inactive: [9] 98 % of control | [10] 98 % of control | [22] 92 % of control

COc1cc2ccnc(Cc3ccc4c(c3)OCO4)c2cc1OC
inactive: [14] 115 % of control | [15] 95 % of control | dose: 100.0 mg/kg/injection, schedule: Q04DX003 (ip), vehicle: saline 100 % of control | [16] 100 % of control | dose: 200.0 mg/kg/injection, schedule: Q04DX003 (ip), vehicle: saline 100 % of control | dose: 400.0 mg/kg/injection, schedule: Q04DX003 (ip), vehicle: saline 95 % of control

NCCNCC[OH2+].NCCNCC[OH2+].O=[N+]([O-])[O-].[Cu+2]
inactive: dose: 3.12 mg/kg/injection, schedule: Q01DX009 (ip), vehicle: Klucel (hydroxypropylcellulose) (HPC) 98 % of control | dose: 6.25 mg/kg/injection, schedule: Q01DX009 (ip), vehicle: Klucel (hydroxypropylcellulose) (HPC) 111 % of control | dose: 6.25 mg/kg/injection, schedule: Q04DX003 (ip), vehicle: saline 97 % of control | dose: 12.5 mg/kg/injection, schedule: Q01DX009 (ip), vehicle: Klucel (hydroxypropylcellulose) (HPC) 93 % of control | dose: 12.5 mg/kg/injection, schedule: Q04DX003 (ip), vehicle: saline 100 % of control | dose: 25.0 mg/kg/injection, schedule: Q04DX003 (ip), vehicle: saline 86 % of control

NC(=O)c1cc(Cl)nc2nc(Cl)nc(N)c12
inactive: [9] 105 % of control | [18] 101 % of control | [10] 105 % of control | [19] 100 % of control and 114 % of control | [22] 108 % of control | [20] 106 % of control | dose: 400.0 mg/kg/injection, schedule: Q01DX005 (ip), vehicle: saline with Tween-80 112 % of control | [21] 110 % of control and 111 % of control
